Assay results: patent US11214803B2, “Modulators of YAP1 expression” (Ionis Pharmaceuticals, Inc., priority 2019, dated 2022)
Strand notation (5' to 3'): a small letter for the sugar, then the base; units joined by * are phosphorothioate-linked, units joined directly phosphodiester-linked; [ ] holds rarer units or linkages, { } end groups; capitals alone tell only the bases. k = constrained ethyl (cEt); [5mC] = 5-methylcytosine; d = 2'-deoxy (DNA)

Tests used:
[1] = Tolerability in Balb/c mice, body and organ weights (Example 13); type: in vivo; settings: male Balb/c mice, 50 mg/kg s.c. twice a week for four weeks (8 treatments), end of study (day 25)
Description: (§1) Groups of male Balb/c mice at 4-6 weeks of age (obtained from Taconic) were injected subcutaneously twice a week for four weeks (for a total of 8 treatments) with 50 mg/kg of modified oligonucleotides. One group of male Balb/c mice was injected with PBS. Mice were euthanized on day 25 post start of treatment (24 hours following the final administration).
Body weights of Balb/c mice were measured at the end of the study, and the average body weight for each group is presented in the table below. Modified oligonucleotides that caused any changes in organ weights outside the expected range for modified oligonucleotides were excluded from further studies.

[2] = Tolerability in Balb/c mice, plasma chemistry markers (Example 13); type: in vivo; settings: male Balb/c mice, 50 mg/kg s.c. twice a week for four weeks (8 treatments), day 25
Description: Balb/c mice were treated with modified oligonucleotides selected from studies described above and evaluated for changes in the levels of various plasma chemistry markers.
as §1

[3] = test system: Yap1 mRNA; assay: Dose-dependent inhibition of human Yap1 in A-431 cells (Example 7, 10,000 cells per well, RTS36584); type: cell-based; settings: free uptake; for Yap1 mRNA, % UTC: A-431 cells 10,000 cells per well, 48 hours
Method in brief: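 A-431 cells at 10,000 per well received modified oligonucleotides by free uptake at several doses. After about 48 hours, Yap1 mRNA was quantified with primer-probe set RTS36584, normalized to RIBOGREEN total RNA and expressed as % untreated control. IC50 came from linear regression on a log/linear plot.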

[4] = test system: Yap1 mRNA; assay: Dose-dependent inhibition of human Yap1 in A-431 cells (Example 8, 10,000 cells per well, RTS4814); type: cell-based; settings: free uptake, approximately 48 hours, RTS4814; for Yap1 mRNA, % UTC: A-431 cells, 10,000 cells per well
Method in brief: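 A-431 cells (10,000/well) dosed with modified oligonucleotides by free uptake; Yap1 mRNA measured ~48 h later with primer-probe set RTS4814, normalized to total RNA (RIBOGREEN). Values are % of untreated control; IC50 from linear regression on log/linear plot.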

[5] = Tolerability in CD-1 mice, body and organ weights (Example 18); type: in vivo; settings: male CD-1 mice, 50 mg/kg s.c. twice a week (total of 9 treatments), end of study (day 34)
Description: (§2) Groups of four male CD-1 mice at 5-6 weeks of age (obtained from Charles River) were injected subcutaneously twice a week for four weeks (for a total of 9 treatments) with 50 mg/kg of modified oligonucleotides. One group of male CD-1 mice was injected with PBS. Mice were euthanized on day 34 post start of treatment (24 hours following the final administration).
Body weights of CD-1 mice were measured at the end of the study, and the average body weight for each group is presented in the table below. Modified oligonucleotides that caused any changes in organ weights outside the expected range for modified oligonucleotides were excluded from further studies.

[6] = Tolerability in Sprague-Dawley rats, plasma chemistry markers (Example 20); type: in vivo; settings: male Sprague-Dawley rats, 50 mg/kg s.c. weekly for 6 weeks (7 doses), 48 hours after last dose
Description: Sprague-Dawley rats are a multipurpose model used for safety and efficacy evaluations. The rats were treated with Ionis modified oligonucleotides from the studies described in the Examples above and evaluated for changes in the levels of various plasma chemistry markers.

[7] = Tolerability in Sprague-Dawley rats, kidney function, urine total protein to creatinine ratio (Example 20); settings: male Sprague-Dawley rats, 50 mg/kg subcutaneously weekly for 6 weeks (total 7 doses)
Description: Male Sprague-Dawley rats were maintained on a 12-hour light/dark cycle and fed ad libitum with Purina normal rat chow. Groups of 4 Sprague-Dawley rats each were weekly injected subcutaneously with 50 mg/kg of Ionis oligonucleotide for 6 weeks (total 7 doses). Forty-eight hours after the last dose, the rats were euthanized; and organs, urine and plasma were harvested for further analysis.
To evaluate the effect of Ionis oligonucleotides on kidney function, urinary levels of total protein and creatinine were measured using an automated clinical chemistry analyzer (Hitachi Olympus AU400c, Melville, N.Y.).

[8] = test system: Yap1 mRNA; assay: Dose-dependent inhibition of human Yap1 in SNU-449 cells (Example 9, RTS36584); type: cell-based; settings: free uptake; for % UTC (Yap1 mRNA): approximately 48 hours
Method in brief: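 SNU-449 cells (10,000/well) took up modified oligonucleotides by free uptake at a range of doses for about 48 h. Yap1 mRNA was quantified with primer-probe set RTS36584, normalised to RIBOGREEN total RNA and expressed as % untreated control; IC50 from linear regression on log/linear plot.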

[9] = Tolerability in CD-1 mice, plasma chemistry markers (Example 18); type: in vivo; settings: male CD-1 mice, 50 mg/kg s.c. twice a week (total of 9 treatments), day 34
Description: CD-1 mice were treated with modified oligonucleotides selected from studies described above and evaluated for changes in the levels of various plasma chemistry markers.
as §2

[10] = Tolerability in Sprague-Dawley rats, body and organ weights (Example 20); type: in vivo; settings: male Sprague-Dawley rats, 50 mg/kg s.c. weekly for 6 weeks (7 doses)
Description: Terminal body weight was measured prior to necropsy. Ionis oligonucleotides that caused any changes in organ weights outside the expected range for modified oligonucleotides were excluded from further studies.

[11] = Cynomolgus monkey tolerability, kidney and liver function markers (Example 34); settings: cynomolgus monkeys, 35 mg/kg subcutaneously, blood samples day 44
Description: Prior to the study, the monkeys were kept in quarantine during which the animals were observed daily for general health. The monkeys were 2-4 years old and weighed 2-4 kg. Eleven groups of 4 randomly assigned male cynomolgus monkeys each were injected subcutaneously with Ionis oligonucleotide or saline in a clock-wise rotation between four different sites on the back. Following loading doses on days 1, 3, 5 and 7, the monkeys were dosed once per week (on days 14, 21, 28, 35, and 42) with 35 mg/kg of Ionis oligonucleotide.
To evaluate the effect of Ionis oligonucleotides on hepatic and kidney function, blood samples were collected from all the study groups on day 44. The monkeys were fasted overnight prior to blood collection. Blood was collected in tubes without anticoagulant for serum separation. The tubes were kept at room temperature for a minimum of 90 minutes and then centrifuged at 3000 rpm for 10 minutes to obtain serum. Levels of various liver function markers were measured using a Toshiba 200FR NEO chemistry analyzer (Toshiba Co., Japan).

[12] = Cynomolgus monkey tolerability, pro-inflammatory proteins analysis, Complement C3 and CRP (Example 34); type: in vivo; settings: cynomolgus monkeys, 35 mg/kg subcutaneously, day 42 pre-dose and 24 hours post-dose
Description: To evaluate any inflammatory effect of Ionis oligonucleotides in cynomolgus monkeys, blood samples were taken for analysis. The monkeys were fasted overnight prior to blood collection. On day 42 (pre-dose and 24 hours post-dose), approximately 0.8 mL of blood was collected from each animal and put into tubes without anticoagulant for serum separation. […] Complement C3 were measured using a Toshiba 120 FR NEO chemistry analyzer (Toshiba Co., Japan). […] Another marker of inflammation, C-Reactive Protein (CRP) was tested together with the clinical chemistry parameters tested for liver function above.

[13] = Cynomolgus monkey tolerability, body and organ weight measurements (Example 34); type: in vivo; settings: cynomolgus monkeys, 35 mg/kg subcutaneously, loading doses days 1, 3, 5, 7, then once per week
Description: Cynomolgus monkeys were treated with Ionis modified oligonucleotides selected from studies described in the Examples above. Modified oligonucleotide tolerability was evaluated.
During the study period, the monkeys were observed twice daily for signs of illness or distress. Any animal experiencing more than momentary or slight pain or distress due to the treatment, injury or illness was treated by the veterinary staff with approved analgesics or agents to relieve the pain after consultation with the Study Director. Any animal in poor health or in a possible moribund condition was identified for further monitoring and possible euthanasia. Scheduled euthanasia of the animals was conducted on day 86 approximately 48 hours after the last dose by exsanguination while under deep anesthesia. The protocols described in the Example were approved by the Institutional Animal Care and Use Committee (IACUC).
To evaluate the effect of Ionis oligonucleotides on the overall health of the animals, body and organ weights were measured. Terminal body weight was measured prior to necropsy.

[14] = test system: ERK1/2; assay: Measurement of ERK activation (pERK/ERK) in SNU449 xenograft model with sorafenib (second Example 30); type: in vivo, human; settings: SNU449 xenograft in mice, combination therapy compared with sorafenib treatment alone
Description: (§3) Five million SNU449 cells in 30% matrigel were implanted subcutaneously into the fatpads of female NOD.Cg-Prkdcscid II2rgtmlWjl/SzJ mice (from Jackson Laboratory) at 4-6 weeks of age. 43 days post implantation (when tumors had reached approximately 100 mm^3 in size), groups of eight mice each were administered with 50 mg/kg modified oligonucleotide daily for 10 days (loading dose), following which they were administered with 50 mg/kg modified oligonucleotide four times a week for one week, following which they were dosed with 50 mg/kg modified oligonucleotide thrice weekly until the end of the study.
Protein analysis was carried out using standard procedures. […] ERK protein levels were compared to internal control GAPDH. […] The secondary antibody used was donkey anti-rabbit NA934, GE Healthcare. pERK/ERK levels were calculated relative to PBS control to determine % activation of ERK1/2.

[15] = test system: SNU449 xenograft tumor; assay: Tumor volume in SNU449 xenograft tumor model, alone and in combination with sorafenib (second Example 30); type: in vivo, human; settings: SNU449 xenograft in mice
Description: Modified oligonucleotides described in the studies above were tested in a hepatocellular carcinoma SNU449 xenograft tumor model. […] A control oligonucleotide 792169, described herein above, was also tested.
as §3, with “study. […] Animals were sacrificed, and tumors were collected on day 119 post implantation.” for “study.”
Tumor volumes were also measured at the indicated days in the table below.

[16] = Cynomolgus monkey tolerability, coagulation (Example 34); type: in vivo; settings: cynomolgus monkeys, 35 mg/kg subcutaneously, blood samples day 44
Description: To evaluate effect of Ionis modified oligonucleotides on coagulation in cynomolgus monkeys, blood samples of approximately 0.9 mL were collected from each of the available study animals on day 44. The samples were collected in tubes containing 3.2% sodium citrate. Coagulation parameters tested include Activated partial thromboplastin time (APTT), prothrombin time (PT) and Figrinogen (FIB).

[17] = Cynomolgus monkey tolerability, hematology (Example 34); type: in vivo, cynomolgus monkeys; settings: cynomolgus monkeys, 35 mg/kg subcutaneously, blood samples day 44
Description: To evaluate any effect of Ionis oligonucleotides in cynomolgus monkeys on hematologic parameters, blood samples of approximately 0.5 mL of blood was collected from each of the available study animals on day 44. The samples were collected in tubes containing K2-EDTA. Samples were analyzed for red blood cell (RBC) count, Hemoglobin (HGB), Hematocrit (HCT), Mean corpuscular volume (MCV), mean corpuscular hemoglobin (MCH), mean corpuscular hemoglobin concentration (MCHC), RBC Distribution Width (RCDW), reticulocyte count (Retic), platelet count (PLT), mean platelet volume (MPV), white blood cells (WBC) count, individual white blood cell counts, such as that of monocytes (MON), neutrophils (NEU), lymphocytes (LYM), eosinophils (EOS), basophils (BAS), and large unstained cells (LUC) using an ADVIA2120i hematology analyzer (Siemens, USA).

[18] = Cynomolgus monkey tolerability, urine analysis (Example 34); settings: cynomolgus monkeys, 35 mg/kg subcutaneously, day 44

“958371 (antisense kA*k[5mC]*k[5mC]*dA*dA*d[5mC]*dT*dA*dT*dT*dA*d[5mC]*dT*kT*k[5mC]*kA) [compound 958371]” showed a Kidney weight [1] of 0.32 g, a Liver weight [1] of 1.31 g and a Spleen weight [1] of 0.15 g. For the same substance, the body weight [1] was 23 g, the ALT [2] was 249 U/L and the AST [2] was 199 U/L. For the same substance, the BUN [2] was 30 mg/dL, the TBIL [2] was 0.24 mg/dL and the “Yap1 mRNA, % UTC” value ([3]; Table 56, 15.6 nM) was 89 % UTC. For the same substance, the “Yap1 mRNA, % UTC” value ([3]; Table 56, 62.5 nM) was 57 % UTC, the “Yap1 mRNA, % UTC” value ([3]; Table 56, 4000.00 nM) was 11 % UTC and the IC50 ([3]; Table 56, A-431 cells 10,000 cells per well) was 100 nM.

With “1076481 (k[5mC]*kT*kA*dA*dG*dT*dA*dA*dG*dG*dT*dT*dT*k[5mC]*k[5mC]*k[5mC]) [compound 1076481]” the “Yap1 mRNA, % UTC” value ([4]; 31.3 nM) was 21 % UTC, the “Yap1 mRNA, % UTC” value ([4]; 125.0 nM) was 4 % UTC and the “Yap1 mRNA, % UTC” value ([4]; 500.0 nM) was 2 % UTC. For the same substance, the “Yap1 mRNA, % UTC” value ([4]; 2000.00 nM) was 3 % UTC, the IC50 ([4]; A-431 cells, linear regression on log/linear plot) was < 20 nM and the Kidney weight [5] was 0.57 g. It also gave a Liver weight [5] of 2.06 g, a Spleen weight [5] of 0.23 g and a body weight [5] of 39 g. The ALB [6] was 2.74 g/dL, the ALT [6] was 50 U/L and the AST [6] was 91 U/L. For the same substance, the BUN [6] was 49 mg/dL, the TBIL [6] was 0.13 mg/dL and the “URINE P/C ratio (total protein to creatinine ratio)” value [7] was 5. For the same substance, the “% UTC (Yap1 mRNA)” value ([8]; 31.3 nM) was 86 % UTC, the “% UTC (Yap1 mRNA)” value ([8]; 125.0 nM) was 40 % UTC and the “% UTC (Yap1 mRNA)” value ([8]; 500.0 nM) was 15 % UTC. The “% UTC (Yap1 mRNA)” value ([8]; 2000.00 nM) was 3 % UTC, the IC50 ([8]; linear regression on a log/linear plot) was 100 nM and the ALT [9] was 71 U/L. For the same substance, the AST [9] was 121 U/L, the BUN [9] was 23 mg/dL and the TBIL [9] was 0.23 mg/dL. It also gave a Kidney weight ([10]; end of study) of 2.6 g, a Liver weight ([10]; end of study) of 14 g and a Spleen weight ([10]; end of study) of 2.1 g. The body weight ([10]; terminal, prior to necropsy) was 367 g.

In the case of “ION 1198440 (AAGTGTATGTCAGAAG; cEt, 2'-MOE, 5-methylcytosine, phosphorothioate modifications, further chemistry not given here)”, the “effect on liver function” value [11] is reported as “well tolerated”, the “inflammation (Complement C3)” value [12] is reported as “did not cause any inflammation” and the “effect on body and organ weights” value [13] is reported as “well tolerated”. For the same substance, the “ERK1/2 activation (pERK/ERK relative to PBS control), combination with sorafenib” value [14] was “significant decrease in ERK1/2 activation”, the tumor volume ([15]; 50 mg/kg modified oligonucleotide alone) was “significant reduction in tumor volume” and the “tumor volume, combination with sorafenib” value ([15]; 50 mg/kg modified oligonucleotide plus 30 mg/kg sorafenib orally 7 times a week) was “further reduction in tumor volume”. For the same substance, the “effect on coagulation parameters” value [16] was “well tolerated”, the “effect on hematologic parameters” value [17] was “well tolerated” and the urine chemistry markers [18] was “well tolerated”.
